ChEMBL document CHEMBL3045544, “Synthesis, antimicrobial and antioxidant activities of some new indole derivatives containing pyridopyrimidine and pyrazolopyridine moieties” (Med Chem Res, 2013)

Columns and labels:
[1] = test system: Aspergillus niger; experiment: Antimicrobial activity against Aspergillus niger MTCC 281 assessed as diameter of growth inhibition zone at 500 ug/ml after 72 hr by cup-plate method; assay type: functional; conditions: MTCC 281, 72 h, read-out: DIZ
[2] = test system: Aspergillus terreus; experiment: Antimicrobial activity against Aspergillus terreus MTCC 1782 assessed as diameter of growth inhibition zone at 500 ug/ml after 72 hr by cup-plate method; assay type: functional; conditions: MTCC 1782, 72 h, read-out: DIZ
[3] = test system: Aspergillus flavus; experiment: Antimicrobial activity against Aspergillus flavus MTCC 1973 assessed as diameter of growth inhibition zone at 500 ug/ml after 72 hr by cup-plate method; assay type: functional; conditions: MTCC 1973, 72 h, read-out: DIZ
[4] = test system: Pseudomonas aeruginosa; experiment: Antimicrobial activity against Pseudomonas aeruginosa MTCC 1688 assessed as diameter of growth inhibition zone at 500 ug/ml after 24 hr by cup-plate method; assay type: functional; conditions: MTCC 1688, 24 h, read-out: DIZ
[5] = test system: Escherichia coli; experiment: Antimicrobial activity against Escherichia coli MTCC 723 assessed as diameter of growth inhibition zone at 500 ug/ml after 24 hr by cup-plate method; assay type: functional; conditions: MTCC 723, 24 h, read-out: DIZ
[6] = test system: Aspergillus oryzae; experiment: Antimicrobial activity against Aspergillus oryzae MTCC 3567 assessed as diameter of growth inhibition zone at 500 ug/ml after 72 hr by cup-plate method; assay type: functional; conditions: MTCC 3567, 72 h, read-out: DIZ
[7] = test system: Klebsiella pneumoniae; experiment: Antimicrobial activity against Klebsiella pneumoniae NCTC 13368 assessed as diameter of growth inhibition zone at 500 ug/ml after 24 hr by cup-plate method; assay type: functional; conditions: NCTC 13368, 24 h, read-out: DIZ
[8] = test system: Staphylococcus aureus; experiment: Antimicrobial activity against Staphylococcus aureus ATCC 29513 assessed as diameter of growth inhibition zone at 500 ug/ml after 24 hr by cup-plate method; assay type: functional; conditions: ATCC 29513, 24 h, read-out: DIZ
[9] = test system: Radical scavenging activity; experiment: Antioxidant activity assessed as DPPH radical scavenging activity at 50 ug/ml by spectrophotometric analysis; assay type: functional
[10] = Metal chelating activity of the compound assessed as inhibition of ferrozine Fe2+ complex formation at 25 to 100 ug/ml after 10 min by spectrophotometric analysis; assay type: physicochemical
[11] = test system: Radical scavenging activity; experiment: Antioxidant activity assessed as DPPH radical scavenging activity at 75 ug/ml by spectrophotometric analysis; assay type: functional

Structure (SMILES) | zone of inhibition at 500 µg/mL [1] [mm] | zone of inhibition at 500 µg/mL [2] [mm] | zone of inhibition at 500 µg/mL [3] [mm] | zone of inhibition at 500 µg/mL [4] [mm] | zone of inhibition at 500 µg/mL [5] [mm] | zone of inhibition at 500 µg/mL [6] [mm] | zone of inhibition at 500 µg/mL [7] [mm] | zone of inhibition at 500 µg/mL [8] [mm] | Activity [9] [%] | inhibition (INH) [10] | Activity [11] [%]
Cc1ccc2[nH]c(-c3ccccc3)c(-c3cc(-c4ccccc4)nc4ncnc(N)c34)c2c1 | 8 | 10 | 11 | 5 | 8 | 6 | 6 | 10 |  |  | 
CN[C@@H]1[C@H](O[C@H]2[C@H](O[C@H]3[C@H](O)[C@@H](O)[C@H](N=C(N)N)[C@@H](O)[C@@H]3N=C(N)N)O[C@@H](C)[C@]2(O)C=O)O[C@@H](CO)[C@H](O)[C@H]1O [STREPTOMYCIN] |  |  |  | 13 | 13 |  | 13 | 13 |  |  | 
Cc1ccc2[nH]c(-c3ccccc3)c(-c3cc(-c4ccc(Cl)cc4)nc4nc[nH]c(=O)c34)c2c1 | 11 | 9 | 8 | 8 | 8 | 8 | 6 | 9 | 72.7 |  | 
Nc1n[nH]c2nc(-c3ccc(Cl)cc3)cc(-c3c(-c4ccccc4)[nH]c4ccccc34)c12 | 10 | 8 | 11 | 8 | 10 | 10 | 10 | 14 |  | Active | 
Cc1ccc(-c2cc(-c3c(-c4ccccc4)[nH]c4ccccc34)c3c(N)ncnc3n2)cc1 | 10 | 8 | 8 | 10 | 10 | 10 | 11 | 11 |  |  | 
O=c1[nH]cnc2nc(-c3ccccc3)cc(-c3c(-c4ccccc4)[nH]c4ccccc34)c12 | 8 | 8 | 11 | 10 | 10 | 10 | 10 | 2 |  | Active | 
O=c1[nH]cnc2nc(-c3ccc(Cl)cc3)cc(-c3c(-c4ccccc4)[nH]c4ccc(Cl)cc34)c12 | 10 | 8 | 3 | 13 | 11 | 14 | 11 | 11 |  | Active | 
Cc1ccc2[nH]c(-c3ccccc3)c(-c3cc(-c4ccc(Cl)cc4)nc4[nH]nc(N)c34)c2c1 | 10 | 2 | 11 | 8 | 7 | 8 | 10 | 10 |  |  | 
Cc1ccc2[nH]c(-c3ccccc3)c(-c3cc(-c4ccc(Cl)cc4)nc4ncnc(N)c34)c2c1 | 10 | 5 | 11 | 11 | 6 | 8 | 10 | 8 |  |  | 
O=c1[nH]cnc2nc(-c3ccc(Cl)cc3)cc(-c3c(-c4ccccc4)[nH]c4ccccc34)c12 | 10 | 11 | 11 | 2 | 10 | 10 | 8 | 10 |  |  | 
OC(Cn1cncn1)(Cn1cncn1)c1ccc(F)cc1F [FLUCONAZOLE] | 14 | 14 | 14 |  |  | 14 |  |  |  |  | 
Nc1n[nH]c2nc(-c3ccc(Cl)cc3)cc(-c3c(-c4ccccc4)[nH]c4ccc(Cl)cc34)c12 | 6 | 10 | 8 | 6 | 10 | 10 | 11 | 10 |  |  | 73.5
Nc1n[nH]c2nc(-c3ccccc3)cc(-c3c(-c4ccccc4)[nH]c4ccc(Cl)cc34)c12 | 5 | 14 | 10 | 5 | 8 | 10 | 13 | 12 |  |  | 
Nc1ncnc2nc(-c3ccccc3)cc(-c3c(-c4ccccc4)[nH]c4ccccc34)c12 | 10 | 5 | 10 | 9 | 5 | 9 | 10 | 10 |  |  | 
Cc1ccc(-c2cc(-c3c(-c4ccccc4)[nH]c4ccc(C)cc34)c3c(N)n[nH]c3n2)cc1 | 10 | 9 | 11 | 6 | 10 | 3 | 5 | 11 |  |  | 
Cc1ccc(-c2cc(-c3c(-c4ccccc4)[nH]c4ccccc34)c3c(=O)[nH]cnc3n2)cc1 | 6 | 10 | 5 | 10 | 10 | 6 | 11 | 8 |  |  | 
Nc1ncnc2nc(-c3ccc(Cl)cc3)cc(-c3c(-c4ccccc4)[nH]c4ccc(Cl)cc34)c12 | 8 | 8 | 12 | 11 | 11 | 8 | 10 | 12 |  |  | 
Cc1ccc2[nH]c(-c3ccccc3)c(-c3cc(-c4ccccc4)nc4nc[nH]c(=O)c34)c2c1 | 9 | 10 | 10 | 10 | 5 | 8 | 9 | 6 |  |  | 
Cc1ccc(-c2cc(-c3c(-c4ccccc4)[nH]c4ccccc34)c3c(N)n[nH]c3n2)cc1 | 5 | 2 | 8 | 9 | 10 | 10 | 9 | 11 |  |  | 
Nc1ncnc2nc(-c3ccccc3)cc(-c3c(-c4ccccc4)[nH]c4ccc(Cl)cc34)c12 | 10 | 5 | 8 | 8 | 9 | 10 | 5 | 10 | 78 |  | 
Cc1ccc(-c2cc(-c3c(-c4ccccc4)[nH]c4ccc(C)cc34)c3c(N)ncnc3n2)cc1 | 10 | 5 | 5 | 5 | 5 | 8 | 6 | 10 |  |  | 
Cc1ccc(-c2cc(-c3c(-c4ccccc4)[nH]c4ccc(Cl)cc34)c3c(N)ncnc3n2)cc1 | 8 | 4 | 10 | 9 | 9 | 5 | 9 | 10 |  |  | 
Nc1n[nH]c2nc(-c3ccccc3)cc(-c3c(-c4ccccc4)[nH]c4ccccc34)c12 | 10 | 8 | 6 | 11 | 10 | 12 | 10 | 8 | 75.5 |  | 
